In paper PMC9241695, “Selective Metal Chelation by a Thiosemicarbazone Derivative Interferes with Mitochondrial Respiration and Ribosome Biogenesis in Candida albicans” (Microbiology Spectrum, 2022):
Converted amounts (≈) assume the structure as drawn.

Key:
A. fumigatus AF293 = test: Antifungal susceptibility testing, microbroth dilution MIC; format: cell-based; conditions: Aspergillus fumigatus, AF293, 48 h, read-out: MIC (μg/mL) against fungi AF293
Text: (§1) Compound library. The thiosemicarbazone derivatives Triapine and COTI-2 were purchased from Med Chem Express (MCE). The other 87 thiosemicarbazones used in this study were previously synthesized by our collaborators (1, 2). Their structures are shown in Table 1 and Table S1 to help the reader clearly understand the relationship between structure and activity.
(§2) Strains and culture conditions. Clinically derived C. albicans isolates, including G5, F5, and Gu5, were kindly provided by Professor Joachim Morschhäuser of the University of Würzburg. Other clinical C. albicans isolates were kindly donated by Professor Qingguo Qi of Shandong University and Qianfoshan Hospital of Shandong Province Other Candida strains were obtained from Jinan Central Hospital.
(§3) The zap1 mutant and its complemented strain were kindly provided by Professor Aaron P. Mitchell of Carnegie Mellon University (3). The C. neoformans strains used in this study was kindly donated by Professor Guojian Liao of Southwest University and A. fumigatus strain used in this study was provided by Professor Ling Lu of Nanjing Normal University. […]
(§4) Antifungal susceptibility testing. To determine in vitro antifungal activities, the microbroth dilution method was carried out in RPMI1640 medium according to the guidelines of the Clinical and Laboratory Standards Institute (4, 5). The initial concentration in RPMI1640 medium was 1 × 10^3 CFU/mL for the C. albicans and C. neoformans suspensions but 1 × 10^4 CFU/mL for A. fumigatus. The range of final drug concentrations was 0.0156–64 μg/mL. The plates were incubated at35°C for 24 […]
(§5) h (for C. albicans, C. krusei, C. tropicalis, C. parapsilosis) or 48 h (for C. neoformans, A. fumigatus). The MIC was determined based on visible growth inhibition compared with the control. All experiments were performed in duplicate. […]

C. neoformans H99 = test: as above; format: cell-based; conditions: Cryptococcus neoformans, H99, 48 h, read-out: MIC (μg/mL) against fungi H99
Text: as §1, §2, §3, §4, §5

C. albicans SC5314 [1] = test: as above; format: cell-based; conditions: Candida albicans, SC5314, 24 h, read-out: MIC (μg/mL) against fungi SC5314
Text: as §1, §2
as §3, with “University. Before in vitro and in vivo experiments, all C. albicans strains were grown on YPD agar plates. After culturing at 30°C for 24 h, colonies of each strain were cultured in liquid YPD medium at 30°C with continuous shaking” for “University.”
as §4, §5

C. albicans SC5314 [2] = test: qPCR of genes associated with ribosome biogenesis; format: cell-based, Candida albicans; conditions: CPX 0.5 or 2 μg/mL 8 h; DFO 64 µg/mL 6 h; TPEN 0.05 or 0.2 μg/mL 6 h
Procedure: Determination of SOD activity. SOD activity was measured using the Superoxide Dismutase Activity Assay Kit (Njjcbio, Nanjing, China) following the manufacturer's instructions. An overnight culture of C. albicans SC5314 was adjusted to 1 × 10^7 cells/mL with RPMI1640 medium and treated with 19ak at a final concentration of 0, 0.125, 0.25, 0.5, or 1 μg/mL for 6 h. After collection by centrifugation, the cells were broken by glass beads in extraction buffer and centrifuged at 4°C. The absorbance of the supernatant of each sample was measured with a microplate reader at450 nm.
Determination of catalase (CAT) activity. CAT activity was measured by using a Catalase Assay Kit (Solarbio, Beijing, China) following the manufacturer's instructions. An overnight culture of C. albicans SC5314 was adjusted to 1 × 10^6 cells/mL with RPMI1640 medium and treated as described above for SOD activity.
The decomposition of H2O2 is directly accompanied by a decrease in absorbance at 240 nm, and the difference in absorbance per unit time (ΔA240) is a measure of […]
Quantitative real-time polymerase chain reaction (qPCR) analysis. C. albicans SC5314 cells (1 × 10^6 cells/mL) were incubated with or without 19ak (0.5,2 […]
Total RNA was extracted using the hot phenol method, and the RNA quality was analyzed using a spectrophotometer (Eppendorf, Hamburg, Germany). The RNA was converted to cDNA using a cDNA Reverse
Transcription kit (Accurate Biotechnology, Hunan, China). PCR detection based on SYBR Green was performed on an Eppendorf real-time PCR system (Eppendorf, […]
Drug resistance study. Drug resistance studies were carried out by repeatedly treating C. albicans with an antifungal agent followed by MIC determination using […]

S=C(N/N=C(\c1ccccc1)c1ccccn1)Nc1ccccc1Br [Compound 19x]
MIC (A. fumigatus AF293): 16 µg/mL (≈ 38.9 µM) | MIC (C. neoformans H99): 0.5 µg/mL (≈ 1.22 µM) | MIC (C. albicans SC5314 [1]): 1 µg/mL (≈ 2.43 µM)

CC(=O)N(O)CCCCCNC(=O)CCC(=O)N(O)CCCCCNC(=O)CCC(=O)N(O)CCCCCN [DFO, deferoxamine]
Expression of genes associated with ribosome biogenesis (qPCR) (C. albicans SC5314 [2]): minor effects
